Values quoted from earlier work as cited in patent US20070077220A1, “Stable ascorbic acid compositions” (priority 2005, published 2007).

pK (acid-ionizable hydrogen in water): 4.2
SMILES: O=C1O[C@H]([C@@H](O)CO)C(O)=C1O [L-ascorbic acid]
